Data reported in PMC6102326, “Characterization of an Omega-3 Desaturase From Phytophthora parasitica and Application for Eicosapentaenoic Acid Production in Mortierella alpina” (Frontiers in Microbiology, 2018).

Target: T1, PPD17 (omega-3 desaturase; delta-17 desaturase) (Phytophthora nicotianae, UniProt V9F8I2)
T1 construct: gene F443_08426; full length, 361 residues, codon-optimized oPPD17 in pYES2/NT C (His-tagged), expressed in S. cerevisiae INVSc1; 4 predicted TM domains; C-terminal KTKST; His boxes HDAGH, HRHHH, HQIHH
T1 sequence (V9F8I2 1-361): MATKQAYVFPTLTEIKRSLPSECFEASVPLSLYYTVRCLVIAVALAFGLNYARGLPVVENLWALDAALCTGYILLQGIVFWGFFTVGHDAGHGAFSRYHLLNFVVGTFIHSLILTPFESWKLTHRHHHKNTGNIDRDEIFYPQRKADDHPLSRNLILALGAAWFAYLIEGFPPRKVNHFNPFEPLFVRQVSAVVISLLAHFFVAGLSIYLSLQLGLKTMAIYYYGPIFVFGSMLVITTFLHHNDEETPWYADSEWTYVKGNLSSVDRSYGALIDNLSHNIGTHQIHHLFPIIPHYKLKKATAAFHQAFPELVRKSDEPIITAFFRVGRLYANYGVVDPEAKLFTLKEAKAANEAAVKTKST
Test: fatty acid feeding of yeast expressing PPD17, FAME analysis by GC-MS
Format: cell-based
Conditions: free acid fed to culture, 0.2 mM, 12 °C and 28 °C; product eicosatetraenoic acid

CCCCC/C=C\C/C=C\C/C=C\CCCCCCC(=O)O [DGLA, dihomo-gamma-linolenic acid]
fatty acid feeding of yeast expressing PPD17, FAME analysis by GC-MS: PPD17 had stronger substrate preference for C20-PUFA substrate AA and DGLA
